In patent US11312712B2, “Azabenzimidazoles and their use as AMPA receptor modulators” (Janssen Pharmaceutica NV, priority 2015, dated 2022):

Biological target: GluA1o-γ8 (GRIA1o-CACNG8 fusion construct) (Homo sapiens (Human), UniProt P42261+Q8WXS5)
Test: Calcium flux assay (FLIPR), inhibition of TARP γ8 dependent AMPA receptor activity
Format: cell-based
Conditions: GluA1o-γ8 (GRIA1o-CACNG8 fusion) in HEK293 cells, calcium flux after 15 μM glutamate
Text: This assay was used to test compounds for their ability to inhibit TARP γ8 dependent AMPA receptor activity. The AMPA receptor is a non-selective cation channel activated by glutamate. Ionotropic glutamate receptors normally desensitize too rapidly to allow detectable calcium influx in a FLIPR assay (Strange et al. (2006). “Functional characterisation of homomeric ionotropic glutamate receptors GluR1-GluR6 in a fluorescence-based high throughput screening assay.” Comb Chem High Throughput Screen 9(2): 147-158). But, this desensitization is incomplete, and a substantial steady-state current remains in the sustained presence of glutamate (Cho et al. (2007). “Two families of TARP isoforms that have distinct effects on the kinetic properties of AMPA receptors and synaptic currents.” Neuron 55(6): 890-904).
An in vitro assay was used to determine the potency of test compounds as inhibitors of the glutamate response of the channel formed by GluA1o-γ8. To ensure a 1:1 stoichiometry of GluA1o and γ8 subunits in the expressed channel, a fusion of the cDNAs for GRIA1o and CACNG8 was used. Following Shi et al (2009) “The stoichiometry of AMPA receptors and TARPs varies by neuronal cell type.” Neuron 62(5): 633-640), the C-terminus of the cDNA for GRIA1o was fused to the N-terminus of the cDNA for γ8. The linker sequence was QQQQQQQQQQEFAT. Channels expressed with this construct appear to have similar properties to channels formed by co-expression of GRIA1o with an excess of CACNG8 (Shi et al. 2009). A clonal cell line in HEK293 cells stably expressing this construct, with a geneticin selection marker, was generated for use in this assay.
Cell expressing the GRIA1o-CACNG8 fusion construct were grown in a monolayer in 96- or 384-well microtiter plates. They were washed with assay buffer (135 mM NaCl, 4 mM KCl, 3 mM CaCl2, 1 mM MgCl2, 5 mM glucose, 10 mM HEPES, pH 7.4, 300 mOs) using a Biotek EL405 plate washer. The cells were then loaded with a calcium-sensitive dye (Calcium-5 or Calcium-6, Molecular Devices) and the test compounds at a range of concentrations. Calcium flux following the addition of 15 μM glutamate was monitored using a Molecular Devices FLIPR Tetra. The fluorescence in each well was normalized to the fluorescence of negative and positive control wells. The negative control wells had no added compounds, and the positive control wells had been incubated with 10 μM CP465022 (a non-subtype-selective AMPA receptor antagonist) (Lazzaro et al. (2002). “Functional characterization of CP-465,022, a selective, noncompetitive AMPA receptor antagonist.” Neuropharmacology 42(2): 143-153). The responses to glutamate as functions of the test compound concentrations were fitted to a four-parameter logistic function. The fitted parameter corresponding to the midpoint was taken to be the potency of inhibition of the compound. The data in Table 4 below illustrates the observed potentcy for the compounds described herein. pIC50 refers to the negative log of the IC50 in molar.

Sequence of GluA1o-γ8 (GRIA1o-CACNG8 fusion construct) (P42261 other isoform, or with tags, fused parts or gaps): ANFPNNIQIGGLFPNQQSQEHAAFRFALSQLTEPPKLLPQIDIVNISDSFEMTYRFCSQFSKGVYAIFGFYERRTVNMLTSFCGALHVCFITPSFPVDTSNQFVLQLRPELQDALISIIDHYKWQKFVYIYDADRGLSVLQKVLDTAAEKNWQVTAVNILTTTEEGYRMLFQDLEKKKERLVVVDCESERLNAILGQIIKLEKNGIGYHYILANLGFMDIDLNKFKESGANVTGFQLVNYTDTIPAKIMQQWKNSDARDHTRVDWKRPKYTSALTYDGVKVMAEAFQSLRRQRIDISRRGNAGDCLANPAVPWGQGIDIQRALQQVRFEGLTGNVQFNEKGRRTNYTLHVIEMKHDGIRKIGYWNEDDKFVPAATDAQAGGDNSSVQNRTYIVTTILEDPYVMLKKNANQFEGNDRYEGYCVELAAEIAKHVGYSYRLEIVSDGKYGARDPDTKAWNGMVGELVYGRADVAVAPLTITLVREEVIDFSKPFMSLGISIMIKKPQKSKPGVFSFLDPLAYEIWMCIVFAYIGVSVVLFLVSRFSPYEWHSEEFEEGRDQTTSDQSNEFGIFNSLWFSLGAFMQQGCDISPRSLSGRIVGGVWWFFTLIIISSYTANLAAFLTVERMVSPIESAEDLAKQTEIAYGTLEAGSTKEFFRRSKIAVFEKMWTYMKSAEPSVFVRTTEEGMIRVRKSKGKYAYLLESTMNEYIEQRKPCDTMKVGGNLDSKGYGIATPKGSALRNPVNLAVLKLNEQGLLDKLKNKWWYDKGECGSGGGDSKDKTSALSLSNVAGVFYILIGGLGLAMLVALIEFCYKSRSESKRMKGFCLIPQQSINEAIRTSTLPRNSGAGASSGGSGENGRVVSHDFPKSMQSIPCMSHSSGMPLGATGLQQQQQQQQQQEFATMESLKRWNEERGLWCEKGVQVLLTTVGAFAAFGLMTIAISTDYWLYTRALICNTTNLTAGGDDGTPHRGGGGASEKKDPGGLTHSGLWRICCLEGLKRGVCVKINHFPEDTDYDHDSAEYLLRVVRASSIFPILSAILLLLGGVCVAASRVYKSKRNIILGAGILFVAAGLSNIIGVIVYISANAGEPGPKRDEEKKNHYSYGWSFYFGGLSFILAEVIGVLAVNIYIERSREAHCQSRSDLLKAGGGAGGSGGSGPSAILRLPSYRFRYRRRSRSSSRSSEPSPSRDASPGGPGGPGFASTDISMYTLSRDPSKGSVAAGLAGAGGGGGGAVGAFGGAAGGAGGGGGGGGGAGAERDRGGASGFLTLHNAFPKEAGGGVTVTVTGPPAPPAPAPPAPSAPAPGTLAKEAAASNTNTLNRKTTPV

| SMILES | IC50 [nM] |
| --- | --- |
| O=c1[nH]c2ccc(-n3c(-c4ccc(F)cc4)nc4ccc(C(F)(F)F)nc43)cc2s1 [Example 16, 6-[2-(4-Fluorophenyl)-5-(trifluoromethyl)imidazo[4,5-b]pyridin-3-yl]-3H-1,3-benzothiazol-2-one] | 0.631 |
| Cc1ccc2nc(-c3ccccc3)n(-c3ccc4[nH]c(=O)sc4c3)c2n1 [Example 17, 6-(5-Methyl-2-phenyl-imidazo[4,5-b]pyridin-3-yl)-3H-1,3-benzothiazol-2-one] | 0.501 |
| Fc1ccc(-c2nc3cccnc3n2-c2ccc3[nH]ncc3c2)cc1 [Example 22, 2-(4-Fluorophenyl)-3-(1H-indazol-5-yl)imidazo[4,5-b]pyridine] | 31.6 |
| O=C1Cc2cc(-n3c(-c4ccc(F)cc4)nc4cccnc43)ccc2N1 [Example 23, 5-[2-(4-Fluorophenyl)imidazo[4,5-b]pyridin-3-yl]indolin-2-one] | 25.1 |
| O=c1[nH]c2ccc(-n3c(-c4ccc(F)cc4)nc4cccnc43)cc2o1 [Example 24, 6-[2-(4-Fluorophenyl)imidazo[4,5-b]pyridin-3-yl]-3H-1,3-benzoxazol-2-one] | 316 |
| c1ccc(-c2nc3cccnc3n2-c2ccc3[nH]ccc3c2)cc1 [Example 26, 3-(1H-Indol-5-yl)-2-phenyl-imidazo[4,5-b]pyridine] | 501 |
| Cc1ccc2nc(-c3ccc(F)cc3)n(-c3ccc4[nH]c(=O)sc4c3)c2n1 [Example 27, 6-[2-(4-Fluorophenyl)-5-methyl-imidazo[4,5-b]pyridin-3-yl]-3H-1,3-benzothiazol-2-one] | 0.794 |
| O=c1[nH]c2ccc(-n3c(-c4ccc(F)nc4)nc4cccnc43)cc2s1 [Example 28, 6-[2-(6-Fluoro-3-pyridyl)imidazo[4,5-b]pyridin-3-yl]-3H-1,3-benzothiazol-2-one] | 251 |
| Cc1ccc2nc(-c3ccnc(F)c3)n(-c3ccc4[nH]c(=O)sc4c3)c2n1 [Example 29, 6-[2-(2-Fluoro-4-pyridyl)-5-methyl-imidazo[4,5-b]pyridin-3-yl]-3H-1,3-benzothiazol-2-one] | 2.51 |
| O=c1[nH]c2ccc(-n3c(-c4ccnc(F)c4)nc4ccc(C(F)(F)F)nc43)cc2s1 [Example 31, 6-[2-(2-Fluoro-4-pyridyl)-5-(trifluoromethyl)imidazo[4,5-b]pyridin-3-yl]-3H-1,3-benzothiazol-2-one] | 0.251 |
| O=C1Cc2cc(-n3c(-c4ccc(F)cc4)nc4ccc(C(F)(F)F)nc43)ccc2N1 [Example 33, 5-[2-(4-Fluorophenyl)-5-(trifluoromethyl)imidazo[4,5-b]pyridin-3-yl]indolin-2-one] | 0.631 |
| O=C1Cc2cc(-n3c(-c4ccccc4)nc4cccnc43)ccc2N1 [Example 34, 5-(2-Phenylimidazo[4,5-b]pyridin-3-yl)indolin-2-one] | 12.6 |
| O=C1Cc2cc(-n3c(-c4ccc(F)cc4)nc4ccc(F)nc43)ccc2N1 [Example 37, 5-[5-Fluoro-2-(4-fluorophenyl)imidazo[4,5-b]pyridin-3-yl]indolin-2-one] | 6.31 |
| CC(C)c1nc2ccc(C(F)(F)F)nc2n1-c1ccc2c(c1)CC(=O)N2 [Example 38, 5-[2-Isopropyl-5-(trifluoromethyl)imidazo[4,5-b]pyridin-3-yl]indolin-2-one] | 1 |
| O=c1[nH]c2ccc(-n3c(C4CC4)nc4ccc(C(F)(F)F)nc43)cc2s1 [Example 41, 6-[2-Cyclopropyl-5-(trifluoromethyl)imidazo[4,5-b]pyridin-3-yl]-3H-1,3-benzothiazol-2-one] | 0.398 |
| O=c1[nH]c2ccc(-n3c(C4CCOCC4)nc4ccc(C(F)(F)F)nc43)cc2s1 [Example 42, 6-[2-Tetrahydropyran-4-yl-5-(trifluoromethyl)imidazo[4,5-b]pyridin-3-yl]-3H-1,3-benzothiazol-2-one] | 39.8 |
| FC(F)(F)c1ccc2nc(C3CC3)n(-c3ccc4[nH]ncc4c3)c2n1 [Example 43, 2-Cyclopropyl-3-(1H-indazol-5-yl)-5-(trifluoromethyl)imidazo[4,5-b]pyridine] | 2 |
| CCc1nc2ccc(C(F)(F)F)nc2n1-c1ccc2[nH]c(=O)sc2c1 [Example 44, 6-[2-Ethyl-5-(trifluoromethyl)imidazo[4,5-b]pyridin-3-yl]-3H-1,3-benzothiazol-2-one] | 0.398 |
| Cc1nc2ccc(C(F)(F)F)nc2n1-c1ccc2[nH]c(=O)sc2c1 [Example 46, 6-[2-Methyl-5-(trifluoromethyl)imidazo[4,5-b]pyridin-3-yl]-3H-1,3-benzothiazol-2-one] | 6.31 |

More lines, in order of falling IC50, values ahead:

| IC50 [nM] | SMILES |
| --- | --- |
| 63.1 | Cc1nc2ccc(C(F)(F)F)nc2n1-c1ccc2c(c1)CC(=O)N2 [Example 47, 5-[2-Methyl-5-(trifluoromethyl)imidazo[4,5-b]pyridin-3-yl]indolin-2-one] |
| 10 | O=c1[nH]c2ccc(-n3c(-c4ccc(F)cc4)nc4cccnc43)cc2[nH]1 [Example 21, 5-[2-(4-Fluorophenyl)imidazo[4,5-b]pyridin-3-yl]-1,3-dihydrobenzimidazol-2-one] |
| 10 | O=c1[nH]c2ccc(-n3c(-c4ccccc4)nc4cccnc43)cc2s1 [Example 25, 6-(2-Phenylimidazo[4,5-b]pyridin-3-yl)-3H-1,3-benzothiazol-2-one] |
| 5.01 | O=c1[nH]c2ccc(-n3c(-c4ccc(F)cc4)nc4cccnc43)cc2s1 [Example 20, 6-[2-(4-Fluorophenyl)imidazo[4,5-b]pyridin-3-yl]-3H-1,3-benzothiazol-2-one] |
| 3.98 | COc1ccc2nc(-c3ccccc3)n(-c3ccc4[nH]c(=O)sc4c3)c2n1 [Example 18, 6-(5-Methoxy-2-phenyl-imidazo[4,5-b]pyridin-3-yl)-3H-1,3-benzothiazol-2-one] |
| 3.16 | Cc1ccc2nc(-c3ccc(F)cc3)n(-c3ccc4c(c3)CC(=O)N4)c2n1 [Example 35, 5-[2-(4-Fluorophenyl)-5-methyl-imidazo[4,5-b]pyridin-3-yl]indolin-2-one] |
| 1.26 | CC(C)(C)c1nc2ccc(C(F)(F)F)nc2n1-c1ccc2[nH]c(=O)sc2c1 [Example 19, 6-[2-tert-Butyl-5-(trifluoromethyl)imidazo[4,5-b]pyridin-3-yl]-3H-1,3-benzothiazol-2-one] |
| 0.631 | O=C1Cc2cc(-n3c(C4CCCCC4)nc4ccc(C(F)(F)F)nc43)ccc2N1 [Example 48, 5-[2-Cyclohexyl-5-(trifluoromethyl)imidazo[4,5-b]pyridin-3-yl]indolin-2-one] |
| 0.501 | O=c1[nH]c2ccc(-n3c(-c4ccccc4)nc4ccc(Br)nc43)cc2s1 [Example 32, 6-(5-Bromo-2-phenyl-imidazo[4,5-b]pyridin-3-yl)-3H-1,3-benzothiazol-2-one] |
| 0.398 | O=C1Cc2cc(-n3c(-c4ccccc4)nc4ccc(C(F)(F)F)nc43)ccc2N1 [Example 36, 5-[2-Phenyl-5-(trifluoromethyl)imidazo[4,5-b]pyridin-3-yl]indolin-2-one] |
| 0.398 | CC(C)c1nc2ccc(C(F)(F)F)nc2n1-c1ccc2[nH]c(=O)sc2c1 [Example 45, 6-[2-Isopropyl-5-(trifluoromethyl)imidazo[4,5-b]pyridin-3-yl]-3H-1,3-benzothiazol-2-one] |
| 0.316 | O=C1Cc2cc(-n3c(C4CCC4)nc4ccc(C(F)(F)F)nc43)ccc2N1 [Example 49, 5-[2-Cyclobutyl-5-(trifluoromethyl)imidazo[4,5-b]pyridin-3-yl]indolin-2-one] |
| 0.2 | O=c1[nH]c2ccc(-n3c(-c4ccc(F)cc4)nc4ccc(Cl)nc43)cc2s1 [Example 30, 6-[5-Chloro-2-(4-fluorophenyl)imidazo[4,5-b]pyridin-3-yl]-3H-1,3-benzothiazol-2-one] |
| 0.2 | O=c1[nH]c2ccc(-n3c(C4CCCC4)nc4ccc(C(F)(F)F)nc43)cc2s1 [Example 39, 6-[2-Cyclopentyl-5-(trifluoromethyl)imidazo[4,5-b]pyridin-3-yl]-3H-1,3-benzothiazol-2-one] |
| 0.158 | O=c1[nH]c2ccc(-n3c(C4CCCCC4)nc4ccc(C(F)(F)F)nc43)cc2s1 [Example 40, 6-[2-Cyclohexyl-5-(trifluoromethyl)imidazo[4,5-b]pyridin-3-yl]-3H-1,3-benzothiazol-2-one] |
